Biological target: T1, McjD (antibacterial peptide ATP-binding cassette transporter) (Escherichia coli, UniProt Q9X2W0)
T1 construct: full-length, detergent (dodecyl maltopyranoside) purified, ~66 kDa, 580 residues per vanadium, homodimer; prepared as described previously
Assay: X-ray crystallography (V-SAD, […] Å, phased anomalous difference maps)
Settings: complex formed with 2 mM ATP, 2 mM sodium orthovanadate, 5 mM MgCl2, pH 7.8; post-hydrolysis ADP-VO4 state; one site per monomer

T1 sequence (Q9X2W0 whole entry): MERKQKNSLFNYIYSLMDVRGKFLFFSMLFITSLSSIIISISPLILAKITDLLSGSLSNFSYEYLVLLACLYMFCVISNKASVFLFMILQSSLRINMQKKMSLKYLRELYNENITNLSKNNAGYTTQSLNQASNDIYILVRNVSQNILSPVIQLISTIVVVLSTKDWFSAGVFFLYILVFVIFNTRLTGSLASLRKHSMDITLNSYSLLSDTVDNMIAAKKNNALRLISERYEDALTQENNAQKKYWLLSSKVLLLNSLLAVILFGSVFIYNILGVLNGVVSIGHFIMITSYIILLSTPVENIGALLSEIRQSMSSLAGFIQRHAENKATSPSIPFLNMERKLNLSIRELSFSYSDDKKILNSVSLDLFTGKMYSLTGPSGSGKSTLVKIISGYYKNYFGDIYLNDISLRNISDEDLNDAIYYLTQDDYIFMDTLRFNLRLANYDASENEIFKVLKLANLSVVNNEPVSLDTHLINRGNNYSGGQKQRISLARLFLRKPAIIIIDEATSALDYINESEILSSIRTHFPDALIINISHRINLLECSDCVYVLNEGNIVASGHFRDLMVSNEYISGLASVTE

In the case of `[O]=[V]([OH])([OH])[OH]` [VO4], the “X-ray crystallography (V-SAD, 3.4 Å, phased anomalous difference maps)” value is reported as “two vanadium sites (one per monomer) could easily be located”.

Source: paper PMC7642786, “Experimental phasing with vanadium and application to nucleotide-binding membrane proteins” (IUCrJ, 2020)
